Where a name gives a salt, the structure may show the parent alone.
Each compound was assayed on Northern house mosquitoes (Culex pipiens) (assay: Short-term spatial repellency, static air repellency chamber). Conditions: Culex pipiens, 0.25 h; filter paper, 1 mL of 0.5% solution in acetone, air-dried 15 min; 15 min after introduction; read-out: Short-term Percentage repellency 15 min.
Assay type: in vivo
Experimental: (§1) Northern house mosquitoes (Culex pipiens), a primary carrier of West Nile virus in eastern North America, were obtained from an established colony in the Medical Entomology Laboratory in the Department of Entomology at Iowa State University of Science and Technology, Ames Iowa. Mosquito rearing was performed by established protocols that are maintained by the Medical Entomology Laboratory. Repellency bioassays were performed with adult female mosquitoes that emerged 5-7 days previously. […] Mosquitoes, prior to testing, were held at 27° C., 80% relative humidity, and on a 16:8 hr light:dark photoperiod.
Repellency bioassays were performed using a static air repellency chamber, which has been described in various publications by the Pesticide Toxicology Laboratory at Iowa State University of Science and Technology, Ames, Iowa Briefly, a 9-cm×60-cm glass tube was used to monitor the distribution of mosquitoes at 15 min, 30 min, 60 min, 90 min, 120 min, and 150 min after introducing mosquitoes into the static air repellency chamber. […] One end of the spatial chamber contained a treated filter paper, whereas the other (untreated) end of the spatial chamber was not treated with compound. Controls contained filter papers treated with acetone, the solvent used to make the 0.5% solutions. Each end of the repellency chamber was secured with a 100-mm Petri dish using celluloid tape. After securing the petri dishes with corresponding treated or untreated filter papers to the spatial chamber, mosquitoes were anesthetized with carbon dioxide, and approximately 20 female mosquitoes were placed into each repellency chamber for one replicate. The opening of the spatial repellency chamber was secured with celluloid tape to prevent their escape. Chambers were oriented in opposite directions from the previous replicate to account for any directional effect. Four replicates were performed for data analysis for both the control and treatment groups.
(§2) Data for spatial repellency, the percentage repellency, is reported at each of the respective time points in the figures and tables mentioned below. The percentage spatial repellency is the examination of the distribution of mosquitoes and is calculated using the following equation: […]
With `CC(C)=CCCC(C)CCOC(=O)C1CC(C)C1` (centres unmarked) [Compound 3068, citronellyl 3-methylcyclobutanecarboxylate] the pest or weed control at 0.5 % was 22.5%. Work on `CC(C)=CCCC(C)CCOC(=O)C(C)(C)C` (centres unmarked) [Compound 1036A, citronellyl pivalate] yielded a pest or weed control at 0.5 % of 25%. For `CC(C)=CCCC(C)CCOC(=O)C1(C)CCC1` (centres unmarked) [Compound 2106, citronellyl 1-methylcyclobutanecarboxylate], the pest or weed control at 0.5 % was 30%. Compound `C#CCOC(=O)CC(C)CCC=C(C)C` (centres unmarked) [Compound 1060D, propargyl citronellate] has a pest or weed control at 0.5 % of 60%. Compound `CC(C)=CCC/C(C)=C\COC(=O)C1CC1` [Compound 2023B, neryl cyclopropanecarboxylate] has a pest or weed control at 0.5 % of 10%.

Same assay, conditions: Culex pipiens, 1.5 h; filter paper, 1 mL of 0.5% solution in acetone, air-dried 15 min; 90 min; read-out: Short-term Percentage repellency 90 min
For `CC(C)=CCCC(C)CCOC(=O)C1CC(C)C1` (centres unmarked) [Compound 3068, citronellyl 3-methylcyclobutanecarboxylate], the pest or weed control at 0.5 % was 32.5%. `CC(C)=CCCC(C)CCOC(=O)C(C)(C)C` (centres unmarked) [Compound 1036A, citronellyl pivalate] showed a pest or weed control at 0.5 % of 90%. For `CC(C)=CCCC(C)CCOC(=O)C1(C)CCC1` (centres unmarked) [Compound 2106, citronellyl 1-methylcyclobutanecarboxylate], the pest or weed control at 0.5 % was 60%. With `C#CCOC(=O)CC(C)CCC=C(C)C` (centres unmarked) [Compound 1060D, propargyl citronellate] the pest or weed control at 0.5 % was 72.5%. `CC(C)=CCC/C(C)=C\COC(=O)C1CC1` [Compound 2023B, neryl cyclopropanecarboxylate] was tested, and the pest or weed control at 0.5 % was 52.5%.

Same assay, conditions: Culex pipiens, 2.5 h; filter paper, 1 mL of 0.5% solution in acetone, air-dried 15 min; 150 min; read-out: Short-term Percentage repellency 150 min
Work on `CC(C)=CCCC(C)CCOC(=O)C1CC(C)C1` (centres unmarked) [Compound 3068, citronellyl 3-methylcyclobutanecarboxylate] yielded a pest or weed control at 0.5 % of 42.5%. In the case of `CC(C)=CCCC(C)CCOC(=O)C(C)(C)C` (centres unmarked) [Compound 1036A, citronellyl pivalate], the pest or weed control at 0.5 % is reported as 92.5%. Work on `CC(C)=CCCC(C)CCOC(=O)C1(C)CCC1` (centres unmarked) [Compound 2106, citronellyl 1-methylcyclobutanecarboxylate] yielded a pest or weed control at 0.5 % of 67.5%. `C#CCOC(=O)CC(C)CCC=C(C)C` (centres unmarked) [Compound 1060D, propargyl citronellate] showed a pest or weed control at 0.5 % of 70%. `CC(C)=CCC/C(C)=C\COC(=O)C1CC1` [Compound 2023B, neryl cyclopropanecarboxylate] showed a pest or weed control at 0.5 % of 60%.

Same assay, conditions: filter paper treated with 0.1%; FIG. 6
`CC(C)=CCCC(C)CCOC(=O)c1ccco1` (centres unmarked) [Compound 2186, citronellyl 2-furoate] was tested, and the “Short-term repellency at low concentration, in words” value was “significant levels of repellency”.

These compounds were tested on Northern house mosquitoes (Culex pipiens) (assay: Long-term spatial repellency, static air repellency chamber, filter papers air-dried 5 hours). Conditions: Culex pipiens, 0.25 h; 1 mL of 0.5% solution in acetone, air-dried 5 hours; 15 min; read-out: Long-term Percentage repellency 15 min.
Assay type: in vivo
Experimental: as §1, with “were” for “emerged”, “post-emergent.” for “previously.”
Repellency bioassays were performed using a static air repellency chamber, which has been described in various publications by the Pesticide Toxicology Laboratory at Iowa State University of Science and Technology, Ames, Iowa Briefly, a 9-cm×60-cm glass tube was used to monitor the distribution of mosquitoes at 15 min, 30 min, 60 min, 90 min, 120 min, and 150 min after introducing mosquitoes into the static air repellency chamber. Treated filter papers were treated with 1 mL of 0.5% solution in acetone of the terpenoid analogs created in the lab and were exposed to ambient air for 5 hours before they were introduced into the spatial chamber for testing. This is a slight modification of the method described in Example 2, so as to evaluate the residual repellent character of these compounds on a treated surface after 5 hours. One end of the spatial chamber contained a treated filter paper, whereas the other (untreated) end of the spatial chamber was not treated with compound. Controls contained filter papers treated with acetone, the solvent used to make the 0.5% solutions. Each end of the repellency chamber was secured with a 100-mm Petri dish using celluloid tape. After securing the petri dishes with corresponding treated or untreated filter papers to the spatial chamber, mosquitoes were anesthetized with carbon dioxide, and approximately 20 female mosquitoes were placed into each repellency chamber for one replicate. The opening of the spatial repellency chamber was secured with celluloid tape to prevent their escape. Chambers were oriented in opposite directions from the previous replicate to account for any directional effect. Four replicates were performed for data analysis for both the control and treatment groups.
as §2, with “below in this disclosure.” for “below.”
Work on `CC(C)=CCCC(C)CCOC(=O)C1CC(C)C1` (centres unmarked) [Compound 3068, citronellyl 3-methylcyclobutanecarboxylate] yielded a pest or weed control at 0.5 % of 22.5%. `CC(C)=CCCC(C)CC(=O)OCCO` (centres unmarked) [Compound 1052S3, 2-hydroxyethyl citronellate] was tested, and the pest or weed control at 0.5 % was 37.5%. With `CC(C)=CCCC(C)CCOC(=O)C(C)(C)C` (centres unmarked) [Compound 1036A, citronellyl pivalate] the pest or weed control at 0.5 % was 27.5%. `CC(C)=CCCC(C)CCOC(=O)C1(C)CCC1` (centres unmarked) [Compound 2106, citronellyl 1-methylcyclobutanecarboxylate] showed a pest or weed control at 0.5 % of 15%. With `C#CCOC(=O)CC(C)CCC=C(C)C` (centres unmarked) [Compound 1060D, propargyl citronellate] the pest or weed control at 0.5 % was 15%. `CC(C)=CCCC(C)CCOC(=O)c1ccco1` (centres unmarked) [Compound 2186, citronellyl 2-furoate] showed a pest or weed control at 0.5 % of 25%. Compound `C=C(C)C1CC=C(COC(=O)C2CCC2)CC1` (centres unmarked) [Compound 2033, perillyl cyclobutanecarboxylate] has a pest or weed control at 0.5 % of 27.5%. Compound `CC(C)=CCC/C(C)=C\COC(=O)C1CC1` [Compound 2023B, neryl cyclopropanecarboxylate] has a pest or weed control at 0.5 % of 10%. `Cc1ccc(C(C)C)cc1OC=O` [Compound 1107B, carvacryl formate] was tested, and the pest or weed control at 0.5 % was 30%. For `CC(C)=CCC/C(C)=C/C(=O)OCC1CC1` [Compound 2020, cyclopropylmethyl geranate], the pest or weed control at 0.5 % was 40%.

Same assay, conditions: Culex pipiens, 1.5 h; 1 mL of 0.5% solution in acetone, air-dried 5 hours; 90 min; read-out: Long-term Percentage repellency 90 min
In the case of `CC(C)=CCCC(C)CCOC(=O)C1CC(C)C1` (centres unmarked) [Compound 3068, citronellyl 3-methylcyclobutanecarboxylate], the pest or weed control at 0.5 % is reported as 32.5%. Compound `CC(C)=CCCC(C)CC(=O)OCCO` (centres unmarked) [Compound 1052S3, 2-hydroxyethyl citronellate] has a pest or weed control at 0.5 % of 65%. In the case of `CC(C)=CCCC(C)CCOC(=O)C(C)(C)C` (centres unmarked) [Compound 1036A, citronellyl pivalate], the pest or weed control at 0.5 % is reported as 17.5%. `CC(C)=CCCC(C)CCOC(=O)C1(C)CCC1` (centres unmarked) [Compound 2106, citronellyl 1-methylcyclobutanecarboxylate] gave a pest or weed control at 0.5 % of 10%. `C#CCOC(=O)CC(C)CCC=C(C)C` (centres unmarked) [Compound 1060D, propargyl citronellate] was tested, and the pest or weed control at 0.5 % was 62.5%. Work on `CC(C)=CCCC(C)CCOC(=O)c1ccco1` (centres unmarked) [Compound 2186, citronellyl 2-furoate] yielded a pest or weed control at 0.5 % of 42.5%. `CC(C)=CCC/C(C)=C\COC(=O)C1CC1` [Compound 2023B, neryl cyclopropanecarboxylate] gave a pest or weed control at 0.5 % of 52.5%. `Cc1ccc(C(C)C)cc1OC=O` [Compound 1107B, carvacryl formate] was tested, and the pest or weed control at 0.5 % was 37.5%. `CC(C)=CCC/C(C)=C/C(=O)OCC1CC1` [Compound 2020, cyclopropylmethyl geranate] was tested, and the pest or weed control at 0.5 % was 45%.

Same assay, conditions: Culex pipiens, 2.5 h; 1 mL of 0.5% solution in acetone, air-dried 5 hours; 150 min; read-out: Long-term Percentage repellency 150 min
Work on `CC(C)=CCCC(C)CCOC(=O)C1CC(C)C1` (centres unmarked) [Compound 3068, citronellyl 3-methylcyclobutanecarboxylate] yielded a pest or weed control at 0.5 % of 42.5%. `CC(C)=CCCC(C)CC(=O)OCCO` (centres unmarked) [Compound 1052S3, 2-hydroxyethyl citronellate] was tested, and the pest or weed control at 0.5 % was 75%. With `CC(C)=CCCC(C)CCOC(=O)C(C)(C)C` (centres unmarked) [Compound 1036A, citronellyl pivalate] the pest or weed control at 0.5 % was 20%. Compound `CC(C)=CCCC(C)CCOC(=O)C1(C)CCC1` (centres unmarked) [Compound 2106, citronellyl 1-methylcyclobutanecarboxylate] has a pest or weed control at 0.5 % of 15%. For `C#CCOC(=O)CC(C)CCC=C(C)C` (centres unmarked) [Compound 1060D, propargyl citronellate], the pest or weed control at 0.5 % was 77.5%. `CC(C)=CCCC(C)CCOC(=O)c1ccco1` (centres unmarked) [Compound 2186, citronellyl 2-furoate] was tested, and the pest or weed control at 0.5 % was 40%. Work on `CC(C)=CCC/C(C)=C\COC(=O)C1CC1` [Compound 2023B, neryl cyclopropanecarboxylate] yielded a pest or weed control at 0.5 % of 60%. `Cc1ccc(C(C)C)cc1OC=O` [Compound 1107B, carvacryl formate] gave a pest or weed control at 0.5 % of 42.5%. For `CC(C)=CCC/C(C)=C/C(=O)OCC1CC1` [Compound 2020, cyclopropylmethyl geranate], the pest or weed control at 0.5 % was 40%.

Reference: US11485701B2, “Insect repellent compounds and compositions, and methods thereof” (Iowa State University Research Foundation, Inc., priority 2016, dated 2022)
